Experimental data published in patent publication US5140025A, “Thienotricylene for the treatment of bronchial diseases” (BYK Gulden Lomberg Chemische Fabrik GmbH, priority 1987, dated 1992).

Tests used:
[1] = system: acetylcholine-induced bronchospasm; test: Acetylcholine-induced bronchospasm in anaesthetised, spontaneously breathing guinea pigs, intravenous administration; type: in vivo, guinea pig (Pirbright White); details: for Mean bronchospasmolytic activity, percentage increase of Vmaxe vs control spasm / Mean bronchospasmolytic activity, percentage increase of tidal volume (TV) vs control spasm: 0-60 min; for Mean bronchospasmolytic activity, percentage increase of Vmaxe vs control spasm / Mean bronchospasmolytic activity, percentage increase of tidal volume (TV) vs control spasm / Bronchospasmolytic activity, percentage increase of Vmaxe vs control spasm / Bronchospasmolytic activity, percentage increase of tidal volume (TV) vs control spasm: x±SEM, N=10; for Bronchospasmolytic activity, percentage increase of Vmaxe vs control spasm / Bronchospasmolytic activity, percentage increase of tidal volume (TV) vs control spasm: at 60 min
Text: Effect of Intravenously Administered Telenzepine on Acetylchline-Induced Bronchospasms in Anaesthetised, Spontaneously Breathing Guinea Pigs
Method for simultaneously recording pharmacodynamic or toxic effects on interior sensitive receptors and the respiration of guinea pigs (U. Kilian, E. Muller, E. Ch. Dittmann and J. Hamacher, Arzneim.-Forsch. 28, 1699-1708, 1978).
Pirbright White, Interfauna (Tuttlingen), 350-450 g, male.
Ethylurethane 1.2 g/kg i.p. as 12.5% aqueous solution.
Pneumotachogram: Maximum flow velocities of the respiratory air during expiration (Vmaxe, "peak flow"), tidal volume (TV).
Acetylcholine as spasmogen, 0.2-0.3 μmol/kg i.v., dissolved in 0.9% NaCl.
-10 min control spasm, 0 min administration of substance, +2, +10, +20, +30, +60 min test spasms.
Determination of the effect of telenzepine on the parameters (mean and standard error of mean, n=10) and calculation of the bronchospasmolytic activity from this as percentage inhibition of the acetylcholine-induced decrease of Vmaxe and TV by means of time/effect curves. Computation of a dose/response curve of the mean bronchospasmolytic activity during the observation time (0-60 min) from the areas under the time/effect curves and reading of 1 h ED50 values. Determination of a dose/response curve of the bronchospasmolytic activity at time 60 min and reading ED50 values.

[2] = target: M1 receptor (ganglionic); test: Receptor affinity, electrically stimulated rabbit vas deferens in organ bath; details: vas deferens of the rabbit, agonist McN-A-343, Schild slope normalised to 1.00; listed as Compound 3
Description: Isometric contractions (HSE force transducer, K-30; tilt and zones, BD-9 chart recorder) of isolated seminal duct sections of rabbits (male, white New Zealand rabbits, 2.5-3.5 kg) were recorded in an organ bath (10 ml, 31° C., gassing with carbogen, initial tension of the organs 0.75 g) under electrical stimultion (HSE stimulator; hook-shaped Pt electrode 1 cm below the water surface of the bath; 30 V, 0.5 ms, 0.05 Hz). After an equilibration time of 30 minutes, cumulative dose/response curves of McN-A-343 (10^-7 -2×10^-6 M) were recorded simultaneously on 8 organ sections in each case (control curves), using the technique described by van Rossum (1963). After 3 control curves, a fixed concentration of the agonist (for example 5×10^-7, 10^-6, 3×10^-6, 10^-5 or 3×10^-5 M) per organ section was applied and, after stabilisation of the effect, increasing concentrations of the agonist to be tested were added. The nutrient solution used had the following composition (mM): NaCl 118, KCl 4.7, CaCl2 ·2H2 O 2.5, MgSO4 ·7H2 O 0.6, KH2 PO 4 1.2, NaHCO3 25.0 and glucose 11.1. In order to block α2 -adrenoreceptors, the nutrient solution additionally contained 10^-6 M yohimbine.

[3] = target: T1, M2 receptor (cardiac) (Rattus norvegicus, UniProt P10980); test: Receptor affinity, electrically stimulated left atrium of the rat; details: agonist carbachol, Schild slope normalised to 1.00, read-out: pA2 ± SEM, M2 receptor (cardiac) (converted)
T1 construct: isolated, left atria of rats (male 250-350 g); from tissue; host or cells: rat left atrium (isolated, male rats 250-350 g)
T1 sequence (P10980 1-466): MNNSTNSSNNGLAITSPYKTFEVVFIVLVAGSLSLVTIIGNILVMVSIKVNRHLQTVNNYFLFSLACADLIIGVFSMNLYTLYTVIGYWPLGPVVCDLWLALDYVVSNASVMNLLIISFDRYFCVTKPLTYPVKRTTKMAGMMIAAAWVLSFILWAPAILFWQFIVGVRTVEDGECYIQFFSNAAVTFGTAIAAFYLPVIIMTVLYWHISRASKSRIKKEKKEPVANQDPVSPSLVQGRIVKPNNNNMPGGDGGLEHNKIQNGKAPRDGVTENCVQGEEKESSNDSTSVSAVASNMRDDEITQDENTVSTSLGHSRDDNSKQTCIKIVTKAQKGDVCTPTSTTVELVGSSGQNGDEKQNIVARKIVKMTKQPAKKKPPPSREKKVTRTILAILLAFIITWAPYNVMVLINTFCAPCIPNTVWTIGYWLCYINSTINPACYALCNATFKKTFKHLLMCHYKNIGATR
Text: The affinity of (±)-4,9-dihydro-3-methyl-4-[(4-methyl-1-piperazinyl)-acetyl]-10H-thieno[3,4-b][1,5]benzodiazepin-10-one (telenzepine, compound 2 in Table 7) and its conformers [(+)-enantiomer=compound 1, (-)-enantiomer=compound 3] to muscarinic M1 (ganglionic type) and M2 (cardiac type) receptors was investigated by the following methods:
Electrically Stimulated Left Atrium of the Rat (Eltze et al., 1985, Europ. J. Pharmacol. 112, 211-224).
Isometric contractions (HSE force transducer, K-30; Watanabe Linear Corder Mark 5) of isolated, left atria of rats (male 250-350 g) were recorded in an organ bath (10 ml, Tyrode nutrient solution, 31° C., gassing with carbogen, initial tension of the organs 0.25 g) under electrical stimulation (HSE stimulator; hook-shaped Pt electrodes at the base of the bath and immersed, annular Pt electrodes 1 cm below the water surface of the bath; 7 V, 3 ms, 2 Hz). After an equilibration time of 30 minutes, cumulative dose/response curves of carbachol (10^-8 -10^-6 M, in the presence of the antagonist also up to 10^-5 or 10^-4 M) were recorded simultaneously on 4 organs in each case by the technique described by van Rossum (1963). The substance to be tested was added to the organ baths 20 minutes before application of the carbachol. The pauses between the individual dose/response curves were 30-45 minutes.
The Tyrode nutrient solution used had the following composition (mM): NaCl 130, KCl 2.0, CaCl2 ·2H2 O 1.8, MgCl2 ·6H2 O 0.98, NaHCO3 12.0, NaH2 PO4 0.42 and glucose monohydrate 5.6. pA2 values (-log of the molar dissociation constants of the competitive antagonist-receptor complex) were determined by linear regression using the Schild plot: pA2 =-log [B/(x-1)], (Arunlakshana and Schild, 1959).
Table 7 below gives pA2 values of the substances, for which the slope of the regression lines for theoretically competitive antagonism have been normalised to 1.00 (Tallarida et al., 1979).

[4] = system: modified Shay rat (lesion formation and acid secretion); test: Antiulcerogenic and secretion-inhibiting action on the modified Shay rat; type: in vivo
Text: The excellent gastric protective action and the gastric secretion-inhibiting action of the compound (+)-4,9-dihydro-3-methyl-4-[(4-methyl-1-piperazinyl)-acetyl]-10H-thieno[3,4-b][1,5]benzodiazepin-10-one (=compound 1 in Table 8 below) in comparison with the corresponding (-)-enantiomer (=compound 3) and with the racemate (=compound 2) can be detected in studies on the modified Shay rat. The effect of the stated compounds after intravenous (i.v.) administration on the formation of lesions and the acid secretion in the modified Shay rat is shown in Table 8 below.
Ulcers are provoked in rats (female, 180-200 g, 4 animals per cage on high grids) which have fasted for 24 hours, by pylorus ligature (under diethyl ether anaesthesia) and oral administration of 100 mg/10 ml/kg of acetylsalicylic acid. The substances to be tested are administered intravenously (1 ml/kg) directly after the pylorus ligature. The wound is closed by means of Michel clamps. 4 hours afterwards, the animals are sacrificed under anaesthesia with ether by Atlas dislocation, and resection of the stomach.
The stomach is opened along the greater curvature and clamped to a cork sheet, the amount of secreted gastric juice (volume) is determined first and its HCl content (titration with sodium hydroxide solution) being determined subsequently. The number and size (=diameter) of ulcers present are determined using a stereomicroscope, under 10×magnification. The product of severity (according to the following point scale) and number of ulcers serves as an individual lesion index.
The reduction in the means lesion index of each treated group compared with the control group (=100%) serves as a measure of the antiulcerogenic effect. The ED50 is the dose which reduces the mean lesion index or the HCl secretion by 50% compared with the control.

[5] = at time 60 min after administration, 60 min
[6] = modified Shay rat, i.v., interpolated dose, 4 h, N=24, listed as 3, 240 min

Compound: Cc1scc2c1N(C(=O)CN1CCN(C)CC1)c1ccccc1NC2=O [(-)-telenzepine, (-)-4,9-dihydro-3-methyl-4-[(4-methyl-1-piperazinyl)-acetyl]-10H-thieno-[3,4-b][1,5]benzodiazepin-10-one]
- Mean bronchospasmolytic activity, percentage increase of Vmaxe vs control spasm ([1]; 0.1 μmol/kg i.v.): 2 ± 1%
- Mean bronchospasmolytic activity, percentage increase of tidal volume (TV) vs control spasm ([1]; 0.1 μmol/kg i.v.): 0 ± 2%
- Mean bronchospasmolytic activity, percentage increase of Vmaxe vs control spasm ([1]; 1 μmol/kg i.v.): 17 ± 3%
- Mean bronchospasmolytic activity, percentage increase of tidal volume (TV) vs control spasm ([1]; 1 μmol/kg i.v.): 20 ± 5%
- Mean bronchospasmolytic activity, percentage increase of Vmaxe vs control spasm ([1]; 5 μmol/kg i.v.): 65 ± 4%
- Mean bronchospasmolytic activity, percentage increase of tidal volume (TV) vs control spasm ([1]; 5 μmol/kg i.v.): 74 ± 4%
- Mean bronchospasmolytic activity, percentage increase of Vmaxe vs control spasm ([1]; 10 μmol/kg i.v.): 79 ± 2%
- Mean bronchospasmolytic activity, percentage increase of tidal volume (TV) vs control spasm ([1]; 10 μmol/kg i.v.): 87 ± 2%
- Mean bronchospasmolytic activity, percentage increase of Vmaxe vs control spasm ([1]; 30 μmol/kg i.v.): 89 ± 3%
- Mean bronchospasmolytic activity, percentage increase of tidal volume (TV) vs control spasm ([1]; 30 μmol/kg i.v.): 98 ± 3%
- Bronchospasmolytic activity, percentage increase of Vmaxe vs control spasm ([1]; 0.1 μmol/kg i.v.): 1 ± 1%
- Bronchospasmolytic activity, percentage increase of tidal volume (TV) vs control spasm ([1]; 0.1 μmol/kg i.v.): -3 ± 3%
- Bronchospasmolytic activity, percentage increase of Vmaxe vs control spasm ([1]; 1 μmol/kg i.v.): 18 ± 3%
- Bronchospasmolytic activity, percentage increase of tidal volume (TV) vs control spasm ([1]; 1 μmol/kg i.v.): 22 ± 5%
- Bronchospasmolytic activity, percentage increase of Vmaxe vs control spasm ([1]; 5 μmol/kg i.v.): 77 ± 5%
- Bronchospasmolytic activity, percentage increase of tidal volume (TV) vs control spasm ([1]; 5 μmol/kg i.v.): 88 ± 6%
- Bronchospasmolytic activity, percentage increase of Vmaxe vs control spasm ([1]; 10 μmol/kg i.v.): 77 ± 3%
- Bronchospasmolytic activity, percentage increase of tidal volume (TV) vs control spasm ([1]; 10 μmol/kg i.v.): 89 ± 3%
- Bronchospasmolytic activity, percentage increase of Vmaxe vs control spasm ([1]; 30 μmol/kg i.v.): 88 ± 4%
- Bronchospasmolytic activity, percentage increase of tidal volume (TV) vs control spasm ([1]; 30 μmol/kg i.v.): 94 ± 3%
- ED50 of bronchospasmolytic activity, TV [1, 5]: 2.0 μmol/kg i.v.
- ED50 of bronchospasmolytic activity, Vmaxe [1, 5]: 3.2 μmol/kg i.v.
- onset of efficacy ([1]; doses between 0.1 and 1 μmol/kg i.v.): significantly delayed
- ED50 of mean bronchospasmolytic activity, TV ([1]; mean activity 0-60 min, 60 min): 2.5 μmol/kg i.v.
- ED50 of mean bronchospasmolytic activity, Vmaxe ([1]; mean activity 0-60 min, 60 min): 3.1 μmol/kg i.v.
- pA2 ± SEM, M1 receptor (ganglionic) [2]: 6.98 ± 0.14
- Kb [3]: 759 nM
- Inhibition (of acid secretion) following 3 mg ([4]; 3 mg (i.v.), footnote to the ED50 of HCl secretion): 46%
- Gastric protective action, reduction of lesion index, about ED50 [4, 6]: ~0.65 mg/kg i.v.
- Inhibition of acid secretion, reduction of HCl secretion, about ED50 [4, 6]: ~3.0 mg/kg i.v.
